Results reported in the supplement of paper PMC4862054.

Legend:
Test in all cases: normalised response (% of control), CellTiter-Glo; higher = more viable cells (100 = DMSO, 0 = benzethonium chloride kill control)
Details in all cases: incubation time: 72 h
MDA-MB-453 = test system: MDA-MB-453
Procedure, shortened: (§1)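 Breast cancer cell lines were exposed for 72 h in 384-well plates to compound at 5 concentrations, 10-fold apart, covering a 10,000-fold range fixed for each compound. Plates were read for CellTox Green fluorescence and CellTiter-Glo luminescence and normalised to 0.1 % DMSO (100) and a positive kill control (0). Each value is the normalised signal at one concentration of the series.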

MDA-MB-231 = test system: MDA-MB-231
Procedure, shortened: as §1

BT-474 [1] = test system: BT-474
Procedure, shortened: as §1

HCC1599 = test system: HCC1599
Procedure, shortened: as §1

CAL-148 = test system: CAL-148
Procedure, shortened: as §1

MFM-223 = test system: MFM-223
Procedure, shortened: as §1

BT-549 [2] = test system: BT-549
Procedure, shortened: as §1

CAL-85-1 [3] = test system: CAL-85-1
Procedure, shortened: as §1

HCC1937 [4] = test system: HCC1937
Procedure, shortened: as §1

HDQ-P1 = test system: HDQ-P1
Procedure, shortened: as §1

Hs578T [5] = test system: Hs578T
Procedure, shortened: as §1

CAL-120 [6] = test system: CAL-120
Procedure, shortened: as §1

SK-BR-3 [7] = test system: SK-BR-3
Procedure, shortened: as §1

CAL-51 = test system: CAL-51
Procedure, shortened: as §1

MDA-MB-468 = test system: MDA-MB-468
Procedure, shortened: as §1

MDA-MB-436 = test system: MDA-MB-436
Procedure, shortened: as §1

HCC1143 [8] = test system: HCC1143
Procedure, shortened: as §1

DU-4475 = test system: DU-4475
Procedure, shortened: as §1

MCF-10A = test system: MCF-10A
Procedure, shortened: as §1

BT-474 [9] = test system: BT-474; remark: listed apart in the source
Procedure, shortened: as §1

BT-549 [10] = test system: BT-549; remark: listed apart in the source
Procedure, shortened: as §1

CAL-85-1 [11] = test system: CAL-85-1; remark: listed apart in the source
Procedure, shortened: as §1

HCC1937 [12] = test system: HCC1937; remark: listed apart in the source
Procedure, shortened: as §1

Hs578T [13] = test system: Hs578T; remark: listed apart in the source
Procedure, shortened: as §1

CAL-120 [14] = test system: CAL-120; remark: listed apart in the source
Procedure, shortened: as §1

SK-BR-3 [15] = test system: SK-BR-3; remark: listed apart in the source
Procedure, shortened: as §1

HCC1143 [16] = test system: HCC1143; remark: listed apart in the source
Procedure, shortened: as §1

## O=C1c2c(O)ccc(O)c2C(=O)c2c(NCCNCCO)ccc(NCCNCCO)c21 [Mitoxantrone] (100 nM)
MDA-MB-453
  normalised response: 107%
MDA-MB-231
  normalised response: 103%
BT-474 [1]
  normalised response: 94.3%
HCC1599
  normalised response: 120%
CAL-148
  normalised response: 85.6%
MFM-223
  normalised response: 99.7%
BT-549 [2]
  normalised response: 90.1%
CAL-85-1 [3]
  normalised response: 101%
HCC1937 [4]
  normalised response: 97.3%
HDQ-P1
  normalised response: 96.4%
Hs578T [5]
  normalised response: 104%
CAL-120 [6]
  normalised response: 34.6%
SK-BR-3 [7]
  normalised response: 99.2%
CAL-51
  normalised response: 93.8%
MDA-MB-468
  normalised response: 92.4%
MDA-MB-436
  normalised response: 69.8%
HCC1143 [8]
  normalised response: 96%
DU-4475
  normalised response: 86.2%
MCF-10A
  normalised response: 96.2%

## Nc1ccccc1NC(=O)c1ccc(CNc2nccc(-c3cccnc3)n2)cc1 [Mocetinostat] (1000 nM)
MDA-MB-453
  normalised response: 62.8%
MDA-MB-231
  normalised response: 77.7%
BT-474 [1]
  normalised response: 80.4%
HCC1599
  normalised response: 81.2%
CAL-148
  normalised response: 77%
MFM-223
  normalised response: 77%
BT-549 [2]
  normalised response: 66%
CAL-85-1 [3]
  normalised response: 87.9%
HCC1937 [4]
  normalised response: 67.8%
HDQ-P1
  normalised response: 80.8%
Hs578T [5]
  normalised response: 74%
CAL-120 [6]
  normalised response: 83.8%
SK-BR-3 [7]
  normalised response: 78%
CAL-51
  normalised response: 62.9%
MDA-MB-468
  normalised response: 72%
MDA-MB-436
  normalised response: 78.2%
HCC1143 [8]
  normalised response: 91%
DU-4475
  normalised response: 76.3%
MCF-10A
  normalised response: 140%

## COc1nc(N)nc2c1ncn2[C@@H]1O[C@H](CO)[C@@H](O)[C@@H]1O [Nelarabine] (1000 nM)
MDA-MB-453
  normalised response: 87.3%
MDA-MB-231
  normalised response: 93.9%
BT-474 [1]
  normalised response: 83.7%
HCC1599
  normalised response: 113%
CAL-148
  normalised response: 85.6%
MFM-223
  normalised response: 88.3%
BT-549 [2]
  normalised response: 94.1%
CAL-85-1 [3]
  normalised response: 99.1%
HCC1937 [4]
  normalised response: 96.2%
HDQ-P1
  normalised response: 96.7%
Hs578T [5]
  normalised response: 98.7%
CAL-120 [6]
  normalised response: 98.7%
SK-BR-3 [7]
  normalised response: 80.7%
CAL-51
  normalised response: 88.7%
MDA-MB-468
  normalised response: 92.1%
MDA-MB-436
  normalised response: 92.1%
HCC1143 [8]
  normalised response: 89.3%
DU-4475
  normalised response: 91.3%
MCF-10A
  normalised response: 82.8%

## Cc1ccc(Nc2nccc(N(C)c3ccc4c(C)n(C)nc4c3)n2)cc1S(N)(=O)=O [Pazopanib] (1000 nM)
MDA-MB-453
  normalised response: 113%
MDA-MB-231
  normalised response: 106%
BT-474 [1]
  normalised response: 93.9%
HCC1599
  normalised response: 106%
CAL-148
  normalised response: 98.6%
MFM-223
  normalised response: 66.6%
BT-549 [2]
  normalised response: 98.4%
CAL-85-1 [3]
  normalised response: 101%
HCC1937 [4]
  normalised response: 94.5%
HDQ-P1
  normalised response: 100%
Hs578T [5]
  normalised response: 95.6%
CAL-120 [6]
  normalised response: 87.3%
SK-BR-3 [7]
  normalised response: 102%
CAL-51
  normalised response: 104%
MDA-MB-468
  normalised response: 103%
MDA-MB-436
  normalised response: 103%
HCC1143 [8]
  normalised response: 106%
DU-4475
  normalised response: 104%
MCF-10A
  normalised response: 92.5%

## O=C(CCBr)N1CCN(C(=O)CCBr)CC1 [Pipobroman] (1000 nM)
MDA-MB-453
  normalised response: 101%
MDA-MB-231
  normalised response: 99.5%
BT-474 [1]
  normalised response: 93.9%
HCC1599
  normalised response: 109%
CAL-148
  normalised response: 101%
MFM-223
  normalised response: 104%
BT-549 [2]
  normalised response: 102%
CAL-85-1 [3]
  normalised response: 105%
HCC1937 [4]
  normalised response: 103%
HDQ-P1
  normalised response: 97.2%
Hs578T [5]
  normalised response: 108%
CAL-120 [6]
  normalised response: 99.3%
SK-BR-3 [7]
  normalised response: 106%
CAL-51
  normalised response: 88.8%
MDA-MB-468
  normalised response: 99.6%
MDA-MB-436
  normalised response: 96.6%
HCC1143 [8]
  normalised response: 112%
DU-4475
  normalised response: 95.8%
MCF-10A
  normalised response: 97%

## C[C@]12C=CC(=O)C=C1CC[C@@H]1[C@@H]2[C@@H](O)C[C@@]2(C)[C@H]1CC[C@]2(O)C(=O)CO [Prednisolone] (1000 nM)
MDA-MB-453
  normalised response: 98.1%
MDA-MB-231
  normalised response: 154%
BT-474 [1]
  normalised response: 158%
HCC1599
  normalised response: 109%
CAL-148
  normalised response: 102%
MFM-223
  normalised response: 106%
BT-549 [2]
  normalised response: 102%
CAL-85-1 [3]
  normalised response: 113%
HCC1937 [4]
  normalised response: 97.6%
HDQ-P1
  normalised response: 85.8%
Hs578T [5]
  normalised response: 113%
CAL-120 [6]
  normalised response: 75.2%
SK-BR-3 [7]
  normalised response: 90.3%
CAL-51
  normalised response: 120%
MDA-MB-468
  normalised response: 121%
MDA-MB-436
  normalised response: 99.7%
HCC1143 [8]
  normalised response: 102%
DU-4475
  normalised response: 101%
MCF-10A
  normalised response: 101%

## CNC(=O)c1cc(Oc2ccc(NC(=O)Nc3ccc(Cl)c(C(F)(F)F)c3)cc2)ccn1 [Sorafenib] (100 nM)
MDA-MB-453
  normalised response: 90.5%
MDA-MB-231
  normalised response: 104%
BT-474 [1]
  normalised response: 101%
HCC1599
  normalised response: 98.7%
CAL-148
  normalised response: 110%
MFM-223
  normalised response: 104%
BT-549 [2]
  normalised response: 106%
CAL-85-1 [3]
  normalised response: 107%
HCC1937 [4]
  normalised response: 104%
HDQ-P1
  normalised response: 103%
Hs578T [5]
  normalised response: 90.6%
CAL-120 [6]
  normalised response: 111%
SK-BR-3 [7]
  normalised response: 104%
CAL-51
  normalised response: 83.9%
MDA-MB-468
  normalised response: 117%
MDA-MB-436
  normalised response: 109%
HCC1143 [8]
  normalised response: 105%
DU-4475
  normalised response: 105%
MCF-10A
  normalised response: 122%

## CNC(=O)c1cc(Oc2ccc(NC(=O)Nc3ccc(Cl)c(C(F)(F)F)c3)cc2)ccn1 [Sorafenib] (1000 nM)
BT-474 [9]
  normalised response: 102%
BT-549 [10]
  normalised response: 102%
CAL-85-1 [11]
  normalised response: 108%
HCC1937 [12]
  normalised response: 102%
Hs578T [13]
  normalised response: 96%
CAL-120 [14]
  normalised response: 112%
SK-BR-3 [15]
  normalised response: 96.9%
HCC1143 [16]
  normalised response: 106%

## CCN(CC)CCNC(=O)c1c(C)[nH]c(/C=C2\C(=O)Nc3ccc(F)cc32)c1C [Sunitinib] (100 nM)
MDA-MB-453
  normalised response: 92%
MDA-MB-231
  normalised response: 109%
BT-474 [1]
  normalised response: 107%
HCC1599
  normalised response: 107%
CAL-148
  normalised response: 104%
MFM-223
  normalised response: 107%
BT-549 [2]
  normalised response: 107%
CAL-85-1 [3]
  normalised response: 104%
HCC1937 [4]
  normalised response: 99.4%
HDQ-P1
  normalised response: 101%
Hs578T [5]
  normalised response: 102%
CAL-120 [6]
  normalised response: 103%
SK-BR-3 [7]
  normalised response: 112%
CAL-51
  normalised response: 88.4%
MDA-MB-468
  normalised response: 108%
MDA-MB-436
  normalised response: 105%
HCC1143 [8]
  normalised response: 108%
DU-4475
  normalised response: 99.7%
MCF-10A
  normalised response: 95.5%
